Source: patent publication US20120101083A1, “S1P1 AGONISTS COMPRISING A BICYCLIC N-CONTAINING RING” (GLAXO GROUP LIMITED, priority 2009, published 2012)
Where a name gives a salt, the structure may show the parent alone.

Key:
[1] = molecular target: T1, S1P1 receptor (S1P1 expressing RH7777 membranes) (Homo sapiens, UniProt P21453); test: S1P1 GTPγS assay; assay type: biochemical; conditions: tested in one of the above S1P1 assays (two GTPγS formats)
T1 construct: expressed in transfected cells; host or cells: RH7777 cells (membranes)
Summary of the method: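 Membranes from RH7777 cells expressing human S1P1 (1.5 μg/well) precoupled 30 min on ice to WGA SPA beads in 20 mM HEPES pH 7.4, 10 mM MgCl2, 100 mM NaCl, with 10 μM GDP and 90 μg/ml saponin. [35S]-GTPγS 0.5 nM final added with compound; SPA signal read immediately.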

[2] = molecular target: T2, S1P1 (PathHunter CHO-K1 EDG1 β-Arrestin cell line) (Homo sapiens, UniProt P21453); test: S1P-1 β-Arrestin recruitment assay; assay type: cell-based; conditions: CHO-K1 EDG1 β-Arrestin cells, chemi-luminescence
T2 construct: host or cells: PathHunter CHO-K1 EDG1 β-Arrestin cell line
Summary of the method: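 CHO-K1 cells expressing S1P1 and β-arrestin 2 fused to complementing β-galactosidase fragments, at 1×10^4 cells/well in pH 7.4 buffer with 0.1% BSA. Compound exposure 90 min at 37 °C then 15 min room temperature; chemiluminescent substrate added for 60 min before luminescence read.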

T1 sequence (P21453 whole entry): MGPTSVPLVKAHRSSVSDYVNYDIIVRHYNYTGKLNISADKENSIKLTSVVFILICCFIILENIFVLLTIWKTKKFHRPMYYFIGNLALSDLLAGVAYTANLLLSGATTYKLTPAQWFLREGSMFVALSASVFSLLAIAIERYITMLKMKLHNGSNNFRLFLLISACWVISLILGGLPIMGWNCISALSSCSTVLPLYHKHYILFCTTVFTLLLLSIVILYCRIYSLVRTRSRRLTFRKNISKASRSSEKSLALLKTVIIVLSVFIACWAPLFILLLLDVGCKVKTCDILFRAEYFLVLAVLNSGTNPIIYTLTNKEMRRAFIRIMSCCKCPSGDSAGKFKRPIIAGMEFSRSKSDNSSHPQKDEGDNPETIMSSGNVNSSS
T2 sequence (P21453 whole entry): as above
T2 sequence (P32121 whole entry partner): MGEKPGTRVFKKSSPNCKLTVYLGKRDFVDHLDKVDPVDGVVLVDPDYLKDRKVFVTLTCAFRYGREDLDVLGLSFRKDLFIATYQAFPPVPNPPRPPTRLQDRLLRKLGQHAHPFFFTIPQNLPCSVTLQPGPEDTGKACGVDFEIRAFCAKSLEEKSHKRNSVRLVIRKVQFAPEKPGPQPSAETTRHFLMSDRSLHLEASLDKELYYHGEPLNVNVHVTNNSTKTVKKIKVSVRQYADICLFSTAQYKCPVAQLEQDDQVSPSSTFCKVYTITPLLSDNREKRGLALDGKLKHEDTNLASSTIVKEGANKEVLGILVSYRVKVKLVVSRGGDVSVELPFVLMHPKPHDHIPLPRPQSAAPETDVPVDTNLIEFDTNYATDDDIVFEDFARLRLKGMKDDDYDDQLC

Compound	EC50 [1]	EC50 [2]
CC(C)Oc1ccc(-c2nc(-c3ccc4c(c3)CCN(C(=O)CCN)CC4)no2)cc1C#N [Example 69, 5-[3-(3-β-alanyl-2,3,4,5-tetrahydro-1H-3-benzazepin-7-yl)-1,2,4-oxadiazol-5-yl]-2-[(1-methylethyl)oxy]benzonitrile]	≤ 100 nM	≤ 10 nM
CCOc1ccc(-c2nc(-c3ccc4c(c3)CCN(CC(O)CO)CC4)no2)cc1C#N (centres unmarked) [Example 70, 5-{3-[3-(2,3-dihydroxypropyl)-2,3,4,5-tetrahydro-1H-3-benzazepin-7-yl]-1,2,4-oxadiazol-5-yl}-2-(ethyloxy)benzonitrile]	≤ 100 nM	≤ 100 nM
Cc1c(-c2noc(-c3ccc(OC(C)C)c(C#N)c3)n2)ccc2c1CCN(C[C@H](O)CO)C2 [Example 71, 5-(3-{2-[(2S)-2,3-dihydroxypropyl]-5-methyl-1,2,3,4-tetrahydro-6-isoquinolinyl}-1,2,4-oxadiazol-5-yl)-2-[(1-methylethyl)oxy]benzonitrile hydrochloride]	≤ 100 nM	≤ 100 nM
CC(C)Oc1ccc(-c2nc(-c3ccc4c(c3)CCN(C[C@H](O)CO)CC4)no2)cc1C#N [Example 72, 5-(3-{3-[(2S)-2,3-dihydroxypropyl]-2,3,4,5-tetrahydro-1H-3-benzazepin-7-yl}-1,2,4-oxadiazol-5-yl)-2-[(1-methylethyl)oxy]benzonitrile]	≤ 100 nM	≤ 10 nM
CC(C)Oc1ccc(-c2nc(-c3ccc4c(c3)CCN(CC(=O)NC[C@H](C)O)CC4)no2)cc1C#N [Example 75, 2-[7-(5-{3-cyano-4-[(1-methylethyl)oxy]phenyl}-1,2,4-oxadiazol-3-yl)-1,2,4,5-tetrahydro-3H-3-benzazepin-3-yl]-N-[(2S)-2-hydroxypropyl]acetamide hydrochloride]	≤ 100 nM	≤ 10 nM
CC(C)Oc1ccc(-c2nc(-c3ccc4c(c3)CCN(CC(=O)N[C@H](C)CO)CC4)no2)cc1C#N [Example 78, 2-[7-(5-{3-cyano-4-[(1-methylethyl)oxy]phenyl}-1,2,4-oxadiazol-3-yl)-1,2,4,5-tetrahydro-3H-3-benzazepin-3-yl]-N-(1R)-2-hydroxy-1-methylethyl]acetamide hydrochloride]	≤ 1000 nM	≤ 100 nM
CC(C)Oc1ccc(-c2nc(-c3ccc4c(c3)CCN(CC(=O)N[C@@H](C)CO)CC4)no2)cc1C#N [Example 80, 2-[7-(5-{3-cyano-4-[(1-methylethyl)oxy]phenyl}-1,2,4-oxadiazol-3-yl)-1,2,4,5-tetrahydro-3H-3-benzazepin-3-yl]-N-[(1S)-2-hydroxy-1-methylethyl]acetamide hydrochloride]	≤ 100 nM	≤ 10 nM
CC(C)Oc1ccc(-c2nc(-c3ccc4c(c3)CCN(C(=O)[C@@](C)(N)CO)CC4)no2)cc1C#N [Example 81, 2-[(1-methylethyl)oxy]-5-{3-[3-(2-methyl-L-seryl)-2,3,4,5-tetrahydro-1H-3-benzazepin-7-yl]-1,2,4-oxadiazol-5-yl}benzonitrile]	≤ 100 nM	≤ 100 nM
Cc1c(-c2noc(-c3ccc(OC(C)C)c(C#N)c3)n2)ccc2c1CCN(C(=O)[C@@](C)(N)CO)C2 [Example 82, 2-[(1-methylethyl)oxy]-5-{3-[5-methyl-2-(2-methyl-L-seryl)-1,2,3,4-tetrahydro-6-isoquinolinyl]-1,2,4-oxadiazol-5-yl}benzonitrile]	≤ 1000 nM	≤ 100 nM
CC(C)Oc1ccc(-c2nc(-c3cccc4c3CCN(C(=O)CN)C4)no2)cc1C#N [Example 87, 5-[3-(2-glycyl-1,2,3,4-tetrahydro-5-isoquinolinyl)-1,2,4-oxadiazol-5-yl]-2-[(1-methylethyl)oxy]benzonitrile hydrochloride]	≤ 10 nM	≤ 10 nM
CC(C)Oc1ccc(-c2nc(-c3cccc4c3CCN(C(=O)[C@@H](N)CO)C4)no2)cc1C#N [Example 89, 2-[(1-methylethyl)oxy]-5-[3-(2-L-seryl-1,2,3,4-tetrahydro-5-isoquinolinyl)-1,2,4-oxadiazol-5-yl]benzonitrile hydrochloride]	1 nM	≤ 10 nM
CC(C)Oc1ccc(-c2nc(-c3cccc4c3CCN(C(=O)[C@H](N)CO)C4)no2)cc1C#N [Example 90, 2-[(1-methylethyl)oxy]-5-[3-(2-D-seryl-1,2,3,4-tetrahydro-5-isoquinolinyl)-1,2,4-oxadiazol-5-yl]benzonitrile hydrochloride]	≤ 10 nM	≤ 100 nM
COC(=O)NCCN1CCc2ccc(-c3noc(-c4ccc(OC(C)C)c(C#N)c4)n3)cc2CC1 [Example 100, methyl {2-[7-(5-{3-cyano-4-[(1-methylethyl)oxy]phenyl}-1,2,4-oxadiazol-3-yl)-1,2,4,5-tetrahydro-3H-3-benzazepin-3-yl]ethyl}carbamate]	≤ 10 nM	≤ 10 nM
CC(C)Oc1ccc(-c2nc(-c3ccc4c(c3)CCN(C(=O)CN3CC(O)C3)CC4)no2)cc1C#N [Example 106, 5-(3-{3-[(3-hydroxy-1-azetidinyl)acetyl]-2,3,4,5-tetrahydro-1H-3-benzazepin-7-yl}-1,2,4-oxadiazol-5-yl)-2-[(1-methylethyl)oxy]benzonitrile hydrochloride]	≤ 1000 nM	≤ 100 nM
CC(C)Oc1ccc(-c2nc(-c3ccc4c(c3)CCN(CC(=O)NCCO)CC4)no2)cc1C#N [Example 111, 2-[7-(5-{3-cyano-4-[(1-methylethyl)oxy]phenyl}-1,2,4-oxadiazol-3-yl)-1,2,4,5-tetrahydro-3H-3-benzazepin-3-yl]-N-(2-hydroxyethyl)acetamide hydrochloride]	≤ 100 nM	≤ 10 nM
CC(C)Nc1ncc(-c2nc(-c3ccc4c(c3)CCN(C(=O)CN)CC4)no2)cc1C#N [Example 112, 5-[3-(3-glycyl-2,3,4,5-tetrahydro-1H-3-benzazepin-7-yl)-1,2,4-oxadiazol-5-yl]-2-[(1-methylethyl)amino]-3-pyridinecarbonitrile]	≤ 1000 nM	≤ 100 nM
CC(C)Nc1ncc(-c2nc(-c3ccc4c(c3)CCN(C[C@H](O)CO)CC4)no2)cc1C#N [Example 114, 5-(3-{3-[(2S)-2,3-dihydroxypropyl]-2,3,4,5-tetrahydro-1H-3-benzazepin-7-yl}-1,2,4-oxadiazol-5-yl)-2-[(1-methylethyl)amino]-3-pyridinecarbonitrile]	≤ 1000 nM	≤ 100 nM

More lines, now with the values ahead:

EC50 [1]	EC50 [2]	Compound
≤ 100 nM	≤ 10 nM	Cc1c(-c2noc(-c3ccc(OC(C)C)c(C#N)c3)n2)ccc2c1CCN(C[C@@H](O)CO)C2 [Example 73, 5-(3-{2-[(2R)-2,3-dihydroxypropyl]-5-methyl-1,2,3,4-tetrahydro-6-isoquinolinyl}-1,2,4-oxadiazol-5-yl)-2-[(1-methylethyl)oxy]benzonitrile hydrochloride]
≤ 100 nM	≤ 100 nM	CC(C)Oc1ccc(-c2nc(-c3ccc4c(c3)CCN(C[C@@H](O)CO)CC4)no2)cc1C#N [Example 74, 5-(3-{3-[(2R)-2,3-dihydroxypropyl]-2,3,4,5-tetrahydro-1H-3-benzazepin-7-yl}-1,2,4-oxadiazol-5-yl)-2-[(1-methylethyl)oxy]benzonitrile]
≤ 10 nM	≤ 10 nM	CC(C)Oc1ccc(-c2nc(-c3cccc4c3CCN(CC(O)CO)C4)no2)cc1C#N (centres unmarked) [Example 76, 5-{3-[2-(2,3-dihydroxypropyl)-1,2,3,4-tetrahydro-5-isoquinolinyl]-1,2,4-oxadiazol-5-yl}-2-[(1-methylethyl)oxy]benzonitrile]
≤ 1000 nM	≤ 100 nM	CC(C)Oc1ncc(-c2nc(-c3ccc4c(c3)CCN(C(=O)[C@@H](N)[C@@H](C)O)CC4)no2)cc1C#N [Example 77, 2-[(1-methylethyl)oxy]-5-[3-(3-L-threonyl-2,3,4,5-tetrahydro-1H-3-benzazepin-7-yl)-1,2,4-oxadiazol-5-yl]-3-pyridinecarbonitrile hydrochloride]
≤ 100 nM	≤ 10 nM	Cc1c(-c2noc(-c3cnc(OC(C)C)c(C#N)c3)n2)ccc2c1CCN(C(=O)[C@@H](N)[C@@H](C)O)C2 [Example 79, 2-[(1-methylethyl)oxy]-5-[3-(5-methyl-2-L-threonyl-1,2,3,4-tetrahydro-6-isoquinolinyl)-1,2,4-oxadiazol-5-yl]-3-pyridinecarbonitrile hydrochloride]
≤ 10 nM	≤ 100 nM	CC(C)Oc1ccc(-c2nc(-c3ccc4c(c3)CCN(CC(=O)N3CCOCC3)CC4)no2)cc1C#N [Example 92, 2-[(1-methylethyl)oxy]-5-(3-{3-[2-(4-morpholinyl)-2-oxoethyl]-2,3,4,5-tetrahydro-1H-3-benzazepin-7-yl}-1,2,4-oxadiazol-5-yl)benzonitrile hydrochloride]
≤ 10 nM	≤ 10 nM	CC(C)Oc1ccc(-c2nc(-c3ccc4c(c3)CCN(CC(=O)N3CC(O)C3)CC4)no2)cc1C#N [Example 93, 5-(3-{3-[2-(3-hydroxy-1-azetidinyl)-2-oxoethyl]-2,3,4,5-tetrahydro-1H-3-benzazepin-7-yl}-1,2,4-oxadiazol-5-yl)-2-[(1-methylethyl)oxy]benzonitrile hydrochloride]
≤ 10 nM	≤ 100 nM	CCNC(=O)NCCN1CCc2ccc(-c3noc(-c4ccc(OC(C)C)c(C#N)c4)n3)cc2CC1 [Example 105, N-{2-[7-(5-{3-cyano-4-[(1-methylethyl)oxy]phenyl}-1,2,4-oxadiazol-3-yl)-1,2,4,5-tetrahydro-3H-3-benzazepin-3-yl]ethyl}-N′-ethylurea]
